Experimental data from PubChem BioAssay (NCI).
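Cells were grown in 96-well plates and exposed to each compound for 48 hours at five concentrations; endpoints were interpolated linearly between bracketing concentrations, or set to the highest concentration if not reached. At the GI50, growth is halved. TGI marks complete inhibition of growth.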

Experiments:
Test in all cases: growth of human tumour cells (NCI), 48 h
NCI-H226 lung = tested on: NCI-H226 lung
HT29 colon = tested on: HT29 colon
SNB-19 CNS = tested on: SNB-19 CNS
HCT-116 colon = tested on: HCT-116 colon
HCT-15 colon = tested on: HCT-15 colon
TK-10 renal = tested on: TK-10 renal
U251 CNS = tested on: U251 CNS
ACHN renal = tested on: ACHN renal
HOP-92 NSCLC = tested on: HOP-92 NSCLC
HL-60(TB) leukemia = tested on: HL-60(TB) leukemia

Row | Structure (SMILES) | TGI (NCI-H226 lung) [µM] | TGI (HT29 colon) [µM] | TGI (SNB-19 CNS) [µM] | TGI (HCT-116 colon) [µM] | TGI (HCT-15 colon) [µM] | TGI (TK-10 renal) [µM] | TGI (U251 CNS) [µM] | TGI (ACHN renal) [µM] | TGI (HOP-92 NSCLC) [µM] | TGI (HL-60(TB) leukemia) [µM] | GI50 (NCI-H226 lung) [µM] | GI50 (HT29 colon) [µM] | GI50 (SNB-19 CNS) [µM] | GI50 (HCT-15 colon) [µM] | GI50 (TK-10 renal) [µM] | GI50 (U251 CNS) [µM]
1 | COC1OC2COC(=O)c3cc(O)c(O)c(O)c3-c3c(cc(O)c(O)c3O)C(=O)OC2C(O)C1O (stereo not drawn) | > 100 | > 100 | > 100 | > 100 | > 100 | > 100 | > 100 | > 100 | – | – | – | – | – | – | – | –
2 | CN(C)C(=O)C(F)(F)C(c1ccccc1Br)C1C(=O)N(C)C(=O)N(C)C1=O (stereo not drawn) | > 100 | – | > 100 | > 100 | > 100 | > 100 | > 100 | > 100 | > 100 | – | – | – | – | – | – | –
3 | C=CCOCC1C2CCC3(OCCO3)C21 (stereo not drawn) | > 100 | > 100 | > 100 | > 100 | > 100 | > 100 | > 100 | > 100 | > 100 | – | – | – | – | – | – | –
4 | COc1ccc(OC)c2c(C(C)=O)cccc12 | > 100 | – | > 100 | > 100 | > 100 | > 100 | > 100 | > 100 | – | > 100 | – | – | – | – | – | –
5 | ClC1=NSSC1(Cl)Cl | > 100 | > 100 | > 100 | > 100 | 60 | – | > 100 | 39.5 | – | 5.25 | – | – | – | – | – | –
6 | Clc1cc(N/N=C(\c2ccccc2)c2ccccn2)ncn1 | 67.3 | > 100 | > 100 | > 100 | – | > 100 | > 100 | > 100 | > 100 | – | – | – | – | – | – | –
7 | CN(CCN)[C@H](CSSC[C@@H](c1ccccc1O)N(C)CCN)c1ccccc1O | 35.4 | 21.3 | 26.2 | 20.4 | 18.6 | 30.7 | > 47.8 | 22.6 | 35.6 | – | – | – | – | – | – | –
8 | CCOC(=O)[C@@]12C[C@](/C=C/OC)(O[Si](C)(C)C)[C@@]13c1cc(OC)c(OC)cc1CCN3C(=O)C2=O | > 100 | > 100 | > 100 | > 100 | > 100 | > 100 | > 100 | > 100 | > 100 | – | – | – | – | – | – | –
9 | CN(C(=O)Cc1ccccc1)n1cn[n+](CC(=O)OC(C)(C)C)c1 | > 10 | > 10 | > 10 | > 10 | > 10 | > 10 | > 10 | > 10 | > 10 | – | – | – | – | – | – | –
10 | COC(=O)/C=C(C)/C=C\COC1CCCCO1 (stereo not drawn) | > 100 | – | > 100 | > 100 | > 100 | > 100 | > 100 | > 100 | – | > 100 | – | – | – | – | – | –
11 | C[C@]12CC[C@H]3[C@@H](CC=C4C[C@@H](O)CC[C@@]43C)[C@@H]1C/C(=C\c1cccnc1)[C@@H]2O | 57.4 | > 100 | 61.5 | > 100 | > 100 | 66.8 | 28.7 | 32.2 | 59.6 | – | – | – | – | – | – | –
12 | O=C1c2cc3c(cc2NC(c2ccccc2F)C1O)OCO3 (stereo not drawn) | > 64.7 | 43.3 | > 56.1 | > 35.7 | > 100 | 73.1 | > 68 | > 100 | > 100 | – | – | – | – | – | – | –
13 | CSc1c(C(C)=O)c(O)n(-c2ccc(C)cc2)c(=O)c1C#N | > 100 | > 100 | > 100 | > 100 | > 100 | > 100 | > 100 | – | – | > 100 | – | – | – | – | – | –
14 | CSc1cc(Cl)c(C)cc1S(=O)(=O)NC(=O)NNc1ccc(C)cc1 | > 100 | > 100 | > 100 | > 100 | > 100 | – | > 100 | > 100 | – | – | – | – | – | – | – | –
15 | N#C[S-].[La+3].c1ccc(-c2ccccn2)nc1.c1ccc(-c2ccccn2)nc1.c1ccc(-c2ccccn2)nc1 | 67.9 | > 100 | > 100 | – | > 100 | > 100 | > 100 | – | – | – | 19.5 | 18.7 | 54.6 | 7.07 | 15.7 | 20.1
16 | COC(=O)[C@@H]1c2c(oc3cc(CO)cc(O)c3c2=O)C=C[C@H]1O | 51.5 | 14.2 | 33.5 | 5.98 | 9.48 | 6.8 | 22.5 | – | 22.4 | – | – | – | – | – | – | –
17 | O=C(/C=C/c1ccc(OCc2ccccc2)cc1)NCc1ccc(C(=O)NCCc2ccccc2)cc1 | > 100 | > 100 | > 100 | > 100 | > 100 | > 100 | > 100 | > 100 | > 100 | – | – | – | – | – | – | –
18 | O=C(NNC(=O)c1ccco1)c1ccco1 | > 100 | > 100 | > 100 | > 100 | > 100 | > 100 | > 100 | – | – | > 100 | – | – | – | – | – | –
19 | O=C(C[N+]12CN3CN(CN(C3)C1)C2)c1ccc(-c2ccccc2)cc1 | 49.3 | 48.4 | 57.5 | 35.7 | 86.3 | 47.3 | 32.2 | 52.9 | > 100 | – | – | – | – | – | – | –
